Starred links: 1 amine or outer side, 2 acyl side, 3 side chain; linkers in the order of their positions; H or OH if unused. Positions of bridges follow the written chain, without caps; N, C: chain ends. Non-standard residues stand in square brackets, D forms with d. Residues, ends and D or L forms follow the SMILES beside them. No end group written: not given here. *: point of attachment. Leu(3R-OH,Nα-propionyl) = CCC(=O)N[C@H](C(=O)*)[C@H](O)C(C)C; X1 = CC(C)[C@@H](O[*:3])[C@H](N[*:1])C(=O)[*:2]; NMeT = CN[C@H](C(=O)O)[C@@H](C)O; dPhLac = O=C(O)[C@H](O)Cc1ccccc1; NMeA = CN[C@@H](C)C(=O)O; NMeDha = C=C(NC)C(=O)O
How the values were obtained:
Assay type in all cases: cell-based
[1] = biological target: T1, AT1R (Homo sapiens, UniProt P30556); assay: AT1R sorting to rab11 vesicles BRET (AT1R-RlucII/rGFP-rab11); design: signal peptide-Flag-human AT1R (spFlag-AT1R); signal peptide (N); expressed in transfected cells; host or cells: HEK293SL (HEK293 for the screen)
T1 sequence (P30556 with tags, fused parts or gaps): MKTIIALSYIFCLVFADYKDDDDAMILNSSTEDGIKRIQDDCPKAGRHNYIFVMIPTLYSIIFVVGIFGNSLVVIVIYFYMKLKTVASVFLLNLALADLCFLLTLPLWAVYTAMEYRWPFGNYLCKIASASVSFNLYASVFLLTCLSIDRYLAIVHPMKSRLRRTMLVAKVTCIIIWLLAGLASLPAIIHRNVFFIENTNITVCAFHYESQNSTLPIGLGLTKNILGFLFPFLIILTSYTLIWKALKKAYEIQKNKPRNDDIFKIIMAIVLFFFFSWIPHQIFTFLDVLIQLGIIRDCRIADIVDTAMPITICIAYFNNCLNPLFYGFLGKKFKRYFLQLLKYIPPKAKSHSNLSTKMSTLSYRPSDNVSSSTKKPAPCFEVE
Description: BRET measurements for FIGS. 1B to 9D, 25D to 25F. The following day of transfection, cells were detached and replated onto poly-ornithine coated white 96-well plate at a density of 25,000 cells per well. The next day, cells were washed once with pre-warmed Tyrode's buffer (140 mM NaCl, 2.7 mM KCl, 1 mM CaCl2, 12 mM NaHCO3, 5.6 mM D-glucose, 0.5 mM MgCl2, 0.37 mM NaH2PO4, 25 mM HEPES, pH 7.4), and then stimulated with either various concentrations of ligands in Tyrode's buffer for the indicated time, or single concentration of ligands for various times at 37° C. For recycling experiment, after stimulating the cells with the ligands for 30 min at 37° C., they were washed either three times with ice-cold Tyrode's buffer or once with Tyrode's buffer/three times with acid (50 mM sodium citrate, pH 4.0)/two times with Tyrode's buffer. All the washing steps were performed on ice. Cells were then further incubated with Tyrode's buffer at 37° C. in a water bath for 45 min. […] Measurements were performed by using Synergy2 (BioTek®) microplate reader with a filter set of 410±80 nm and 515±30 nm for detecting the RlucII Renilla luciferase (donor) and GFP10 or rGFP (acceptor) light emissions, respectively. The BRET signal was determined by calculating the ratio of the light intensity emitted by the GFP10 or rGFP over the light intensity emitted by the RlucII. […]

[2] = biological target: T1, AT1R; assay: AT1R sorting to rab4 vesicles BRET (AT1R-RlucII/rGFP-rab4); design: expressed in transfected cells; host or cells: HEK293SL (HEK293 for the screen)
Description: (§1) BRET measurements for FIGS. 1B to 9D, 25D to 25F. The following day of transfection, cells were detached and replated onto poly-ornithine coated white 96-well plate at a density of 25,000 cells per well. The next day, cells were washed once with pre-warmed Tyrode's buffer (140 mM NaCl, 2.7 mM KCl, 1 mM CaCl2, 12 mM NaHCO3, 5.6 mM D-glucose, 0.5 mM MgCl2, 0.37 mM NaH2PO4, 25 mM HEPES, pH 7.4), and then stimulated with either various concentrations of ligands in Tyrode's buffer for the indicated time, or single concentration of ligands for various times at 37° C. For recycling experiment, after stimulating the cells with the ligands for 30 min at 37° C., they were washed either three times with ice-cold Tyrode's buffer or once with Tyrode's buffer/three times with acid (50 mM sodium citrate, pH 4.0)/two times with Tyrode's buffer. All the washing steps were performed on ice. […] The cell-permeable substrate, coelenterazine 400a was added at a final concentration of 5 μM in Tyrode's buffer 3-4 min before BRET measurements. […] The BRET signal was determined by calculating the ratio of the light intensity emitted by the GFP10 or rGFP over the light intensity emitted by the RlucII. All the BRET measurements were performed in triplicate at 37° C.

[3] = biological target: T1, AT1R; assay: AT1R endocytosis BRET at plasma membrane (AT1R-RlucII/lyn-rGFP); design: signal peptide-Flag-human AT1R (spFlag-AT1R); signal peptide (N); expressed in transfected cells; host or cells: HEK293SL (HEK293 for the screen)
Description: as §1
(§2) Data Analysis. Estimation of the t1/2 and the EC50 values for ligand-mediated endocytosis were calculated using the GraphPad® Prism curve fitting program The curves presented throughout this study, representing the best fits, and were generated using this GraphPad® Prism program as well.

[4] = biological target: T1, AT1R; assay: AT1R trafficking to endosomes BRET (AT1R-RlucII/rGFP-endofinFYVE); design: expressed in transfected cells; host or cells: HEK293SL (HEK293 for the screen)
Description: as §1, §2

[5] = 100 nM Ubo, 30 min pre-incubation

Molecule | BRET signal relative to AngII ([1]; 100 nM SI, 1 μM DVG) | time at which BRET signal plateaued ([2]; 100 nM AngII, 100 nM SI, 1 μM DVG) [min] | EC50 ([3]; FIG. 6B, 30 min, read-out: potency to promote AT1R internalization) [nM] | time to maximal AT1R internalization into endosomes ([4]; 100 nM SI or 1 μM DVG) [min] | less efficacious than AngII at promoting AT1R concentration in early endosomes ([4]; 100 nM SI or 1 μM DVG vs 100 nM AngII) [%] | receptor accumulation in endosomes, compared to AngII ([4]; 40 min) | effect on AngII-bound AT1R in Rab11 vesicles ([1]; 100 nM Ubo, 100 nM AngII 30 min) | effect on AngII-bound AT1R in Rab4 vesicles ([2]; 100 nM Ubo, 100 nM AngII 10 min) | effect on AngII-dependent AT1R internalization [3, 5] | effect on DVG- and SI-mediated accumulation of receptors in endosomes [4, 5] | reduction of targeting of AngII-bound AT1R to Rab5 containing endosomes [4, 5]
DRVYVHPG [DVG, [Asp^1,Val^5, Gly^8]-AngII] | overall higher BRET signals | 10 | 75 | 10 | 40 | promoted less receptor accumulation in endosomes |  |  |  |  | 
C=C1C(=O)N[C@@H](C)C(=O)N(C)[C@@H](C)C(=O)N[C@@H]([C@H](OC(=O)[C@@H](NC(=O)CC)[C@H](O)C(C)C)C(C)C)C(=O)N(C)[C@@H]([C@@H](C)OC)C(=O)O[C@H](C(C)C)[C@H](NC(C)=O)C(=O)O[C@H](Cc2ccccc2)C(=O)N1C [Ubo-QIC] (Ac-[X1][dPhLac][NMeDha]A[NMeA][X1](Leu(3R-OH,Nα-propionyl))[NMeT](Me); ester 1-C) |  |  |  |  |  |  | increased AngII-bound AT1R in Rab 4 and Rab11 vesicles | increased AngII-bound AT1R in Rab 4 and Rab11 vesicles | did not prevent | had no effect | more than 25%
